According to patent US20080274947A1, “Hydroxy-Substituted Diphenylazetidinones for the Treatment of Hyperlipidemia” (SANOFI-AVENTIS DEUTSCHLAND GMBH, priority 2005, published 2008):

System: serum LDL cholesterol
Assay: Hamster model: serum LDL cholesterol reduction on a cholesterol-supplemented diet
Format: in vivo, Syrian hamsters
Conditions: Mesocricetus auratus, po, once a day by gavage on 12 consecutive days, LDL cholesterol reduction vs placebo-treated controls
Procedure: Syrian hamsters (in groups of n=5-9) receive a standard diet (ssniff, Soest Germany) supplemented with 0.1% cholesterol.
The test substances are made up in 0.5%/(methylcellulose (Sigma)/5% Solutol (BASF, Ludwigshafen) or another suitable vehicle, and at least three dosages are administered once a day by gavage on 12 consecutive days.
On day 12, the animals are exsanguinated from the aorta under deep anesthesia. The serum is analyzed for total cholesterol, LDL-cholesterol, HDL-cholesterol and triglycerides using standard kits from Roche in accordance with the guidelines of the German Society for Clinical Chemistry.
The ED50 values for LDL cholesterol reduction compared with placebo-treated control animals were calculated using a standard logistic model for the dose-effect plot.

Row | Structure (SMILES) | ED50 [mg/kg]
1 | O=C(OCc1ccc([C@@H]2[C@@H](CC[C@H](O)c3ccc(F)cc3)C(=O)N2c2ccc(F)cc2)c(O)c1)N1CCN(S(=O)(=O)O)CC1 [Example A, Ammonium 4-(4-{1-(4-fluorophenyl)-3-[3-(4-fluorophenyl)-3-hydroxypropyl]-4-oxoazetidin-2-yl}-3-hydroxybenzyloxycarbonyl)piperazine-1-sulfamate] | 0.2
2 | O=C(Nc1ccc([C@@H]2[C@@H](CC[C@H](O)c3ccc(F)cc3)C(=O)N2c2ccc(F)cc2)c(O)c1)N1CCN(S(=O)(=O)O)CC1 [Example E, Ammonium 4-(4-{1-(4-fluorophenyl)-3-[3-(4-fluorophenyl)-3-hydroxypropyl]-4-oxoazetidin-2-yl}-3-hydroxyphenylcarbamoyl)piperazine-1-sulfamate] | 0.1
3 | O=C(Oc1ccc([C@@H]2[C@@H](CC[C@H](O)c3ccc(F)cc3)C(=O)N2c2ccc(F)cc2)c(O)c1)N1CCN(S(=O)(=O)O)CC1 [I, Ammonium 4-(4-{1-(4-Fluorophenyl)-3-[3-(4-fluorophenyl)-3-hydroxypropyl]-4-oxoazetidin-2-yl}-3-hydroxyphenoxycarbonyl)piperazine-1-sulfamate] | < 0.1

System: not listed separately
Assay: Liver exposure: substance level in liver homogenate by LC-MS/MS
Format: in vivo
Conditions: rat, oral, male Wistar rats, 10 mg/kg of body weight, liver dissected after 2 h, read-out: Cmax values in the liver (L)
Procedure: The liver exposure of the compounds of the invention compared with the corresponding compounds without a hydroxyl function in the 2″ position was investigated in vivo in male Wistar rats. A rat anesthetized with ketamine/midazolam (ketamine 80 mg/kg i.p.+midazolam 5 mg/kg i.p.) undergoes laparotomy in the Linea alba, and then the product is administered intraduodenally. During this it is attempted to prevent direct reflux of the product into the stomach. The animals remain under anesthesia throughout the experiment. At the end of the experiment, after 2 h, the liver is dissected out for determination of the substance. The substance levels in the liver homogenates are determined by LC-MS/MS. For this purpose, initially the proteins are precipitated by adding acetonitrile in the presence of an internal standard. Part of the supernatant is mixed with a suitable buffer, and an aliquot of the mixture is injected. The measurement is evaluated via the peak areas of analyte and internal standard.
Cmax values in the liver (L) after oral administration of 10 mg/kg of body weight

Row | Structure (SMILES) | Cmax at 2 h [ng/mL]
4 | N.O=C1[C@H](CC[C@H](O)c2ccc(F)cc2)[C@@H](c2ccc(OCCCOS(=O)(=O)O)cc2O)N1c1ccc(F)cc1 | 300
5 | O=C1[C@H](CC[C@H](O)c2ccc(F)cc2)[C@@H](c2ccc(OCc3ccc(C[N+]45CCN(CC4)CC5)cc3)cc2O)N1c1ccc(F)cc1.[Br-] | 80
6 | N.O=C1[C@H](CC[C@H](O)c2ccc(F)cc2)[C@@H](c2ccc(OCCCOS(=O)(=O)O)cc2)N1c1ccc(F)cc1 [reference compound] | 24300
7 | O=C1[C@H](CC[C@H](O)c2ccc(F)cc2)[C@@H](c2ccc(OCc3ccc(C[N+]45CCN(CC4)CC5)cc3)cc2)N1c1ccc(F)cc1.[Br-] [reference compound] | 200

System: uptake of 14C-cholesterol in the liver (cholesterol absorption)
Assay: Cholesterol absorption test: uptake of 14C-cholesterol in the liver after an oral test meal
Format: in vivo, NMRI mice
Conditions: mouse, dose which halves (50%) the uptake of 14C-cholesterol in the liver relative to control group
Procedure: Influence on Cholesterol Absorption+^3H-Taurocholic Acid Excretion on the Basis of the Fecal Excretion in Mice, Rats or Hamsters
NMRI mice, Wistar rats, or golden Syrian hamsters (in groups of n=4-6) are kept with a standard diet (Altromin, Lage (Lippe)) in metabolism cages. The animals are fasted from the afternoon before administration of the radioactive tracer (^14C-cholesterol) and adapted to wire grids.
In addition, the animals are labeled with ^3H-TCA (taurocholic acid) s.c. 24 hours before the oral administration of the test meal (^14C-cholesterol in Intralipid® 20, Pharmacia-Upjohn) (e.g. 1 μCi/mouse to 5 μCi/rat).
Cholesterol absorption test: 0.25 ml/mouse Intralipid® 20 (Pharmacia-Upjohn) (spiking with 0.25 μCi ^14C-cholesterol in 0.1 mg of cholesterol) is administered orally by gavage.
Test substances are made up separately in 0.5%/(methylcellulose (Sigma)/5% Solutol (BASF, Ludwigshafen) or a suitable vehicle.
The volume for administration of the test substance is 0.5 ml/mouse. The test substance is administered orally immediately before the test meal (Intralipid with ^14C-cholesterol label) (cholesterol absorption test).
Feces are collected for 24 h: the fecal elimination of ^14C-cholesterol and ^3H taurocholic acid (TCA) is determined after 24 h.
The livers are removed, homogenized and combusted in aliquots in an oximate (model 307, Packard) to determine the amount of ^14C-cholesterol taken up/absorbed.
The amount of ^14C-cholesterol taken up in the liver is evaluated in relation to a control group (vehicle-treated) as a function of the dose of the substance administered. The ED50 values are interpolated from a dose-effect plot as the dose which halves (50%) the uptake of ^14C-cholesterol in the liver relative to a control group.

Row | Structure (SMILES) | ED50 (liver) [mg/mouse]
8 | C[n+]1ccn(CCCCOc2ccc([C@@H]3C(CC[C@H](O)c4ccc(F)cc4)C(=O)N3c3ccc(F)cc3)c(O)c2)c1.[I-] (stereo in doubt) [Example M, 3-[4-(4-{1-(4-Fluorophenyl)-3-[3-(4-fluorophenyl)-3-hydroxypropyl]-4-oxoazetidin-2-yl}-3-hydroxyphenoxy)butyl]-1-methyl-3H-imidazol-1-ium iodide] | <0.1
9 | O=C(OCc1ccc([C@@H]2[C@@H](CC[C@H](O)c3ccc(F)cc3)C(=O)N2c2ccc(F)cc2)c(O)c1)N1CCN(S(=O)(=O)O)CC1 [Example A, Ammonium 4-(4-{1-(4-fluorophenyl)-3-[3-(4-fluorophenyl)-3-hydroxypropyl]-4-oxoazetidin-2-yl}-3-hydroxybenzyloxycarbonyl)piperazine-1-sulfamate] | 0.01
10 | O=C1C(CC[C@H](O)c2ccc(F)cc2)[C@@H](c2ccc(CN3CCN(S(=O)(=O)O)CC3)cc2O)N1c1ccc(F)cc1 (stereo partly shown) [Example B, Ammonium 4-(4-{1-(4-Fluorophenyl)-3-[3-(4-fluorophenyl)-3-hydroxypropyl]-4-oxoazetidin-2-yl}-3-hydroxybenzyl)piperazine-1-sulfamate] | <0.1
11 | C[N+]1(C)CCN(C(=O)OCc2ccc([C@@H]3[C@@H](CC[C@H](O)c4ccc(F)cc4)C(=O)N3c3ccc(F)cc3)c(O)c2)CC1.[I-] [Example C, 4-(4-{1-(4-Fluorophenyl)-3-[3-(4-fluorophenyl)-3-hydroxypropyl]-4-oxoazetidin-2-yl}-3-hydroxybenzyloxycarbonyl)-1,1-dimethylpiperazin-1-ium iodide] | 0.1
12 | O=C(Nc1ccc([C@@H]2[C@@H](CC[C@H](O)c3ccc(F)cc3)C(=O)N2c2ccc(F)cc2)c(O)c1)N1CCN(S(=O)(=O)O)CC1 [Example E, Ammonium 4-(4-{1-(4-fluorophenyl)-3-[3-(4-fluorophenyl)-3-hydroxypropyl]-4-oxoazetidin-2-yl}-3-hydroxyphenylcarbamoyl)piperazine-1-sulfamate] | <0.01
13 | O=C1[C@H](CC[C@H](O)c2ccc(F)cc2)[C@@H](c2ccc(NS(=O)(=O)O)cc2O)N1c1ccc(F)cc1 [Example F, Ammonium (4-[1-(4-fluorophenyl)-3-[3-(4-fluorophenyl)-3-hydroxypropyl]-4-oxoazetidin-2-yl]-3-hydroxyphenyl)sulfamate] | 0.3
14 | O=C1[C@H](CC[C@H](O)c2ccc(F)cc2)[C@@H](c2ccc(OCCCOS(=O)(=O)O)cc2O)N1c1ccc(F)cc1 [Example K] | <0.01
15 | O=C1C(CC[C@H](O)c2ccc(F)cc2)[C@@H](c2ccc(OCc3ccc(C[N+]45CCN(CC4)CC5)cc3)cc2O)N1c1ccc(F)cc1.[Br-] (stereo partly shown) [Example N, 1-[4-(4-{1-(4-Fluorophenyl)-3-[3-(4-fluorophenyl)-3-hydroxypropyl]-4-oxoazetidin-2-yl}-3-hydroxyphenoxymethyl)benzyl]-4-aza-1-azoniabicyclo[2.2.2]octane bromide] | 0.01
16 | COc1ccc([C@@H]2[C@@H](CC[C@H](O)c3ccc(F)cc3)C(=O)N2c2ccc(CNC(=O)CCCCCCCCCCNC(=O)[C@H](O)[C@@H](O)[C@H](O)[C@H](O)CO)cc2)c(O)c1 [Example O, 11-(2,3,4,5,6-Pentahydroxyhexanoylamino)undecanoic acid 4-[3-[3-(4-fluorophenyl)-3-hydroxypropyl]-2-(2-hydroxy-4-methoxyphenyl)-4-oxoazetidin-1-yl]benzylamide] | <0.01
17 | COc1ccc([C@@H]2[C@@H](CC[C@H](O)c3ccc(F)cc3)C(=O)N2c2ccc(CNC(=O)N3CCN(C(=O)C[N+]45CCN(CC4)CC5)CC3)cc2)c(O)c1.[Cl-] [Example P, 1-[2-(4-{4-[3-[3-(4-Fluorophenyl)-3-hydroxypropyl]-2-(2-hydroxy-4-methoxyphenyl)-4-oxoazetidin-1-yl]benzylcarbamoyl}piperazin-1-yl)-2-oxoethyl]-4-aza-1-azoniabicyclo[2.2.2]octane chloride] | 0.3
18 | O=C(C[N+]12CCN(CC1)CC2)Nc1ccc([C@@H]2[C@@H](CC[C@H](O)c3ccc(F)cc3)C(=O)N2c2ccc(F)cc2)c(O)c1.[I-] [H, 1-[(4-{1-(4-Fluorophenyl)-3-[3-(4-fluorophenyl)-3-hydroxypropyl]-4-oxoazetidin-2-yl}-3-hydroxyphenylcarbamoyl)methyl]-4-aza-1-azoniabicyclo[2.2.2]octane iodide] | 0.01
19 | O=C(Oc1ccc([C@@H]2[C@@H](CC[C@H](O)c3ccc(F)cc3)C(=O)N2c2ccc(F)cc2)c(O)c1)N1CCN(S(=O)(=O)O)CC1 [I, Ammonium 4-(4-{1-(4-Fluorophenyl)-3-[3-(4-fluorophenyl)-3-hydroxypropyl]-4-oxoazetidin-2-yl}-3-hydroxyphenoxycarbonyl)piperazine-1-sulfamate] | 0.01
